Data set [1] can be described thus: PROFILE IN RATS INTRAVENOUSLY ADMINISTERED
An excerpt: Table printed on a drawing sheet, FIG. 1
Title: PROFILE IN RATS INTRAVENOUSLY ADMINISTERED
Section band inside the table: i.v.

In data set [2] the test system is Sprague Dawley rats. Kind of data set: Induction of penile erection by intranasal administration. The class given is in vivo, rat. Conditions: for % Rats with Penile Erection / Number of Erections/Rat/30 Minutes: intranasal. As to the method:
In another series of experiments, a dosing study was conducted in rats by nasal administration of from 15 μg per kg of body weight to 1500 μg per kg of body weight, using Nasal Formulation 1. Based on penile erectile response behavior, the peptide was efficacious at all dose amounts administered, and particularly from 25 μg/kg to 75 μg/kg, with pharacologic effect observed over the range from 15 μg/kg to 1500 μg/kg. […]

The test system of data set [3] is Female Long-Evans rats. Kind of data set: Female sexual response, unilevel pacing chambers. Conditions: 200 μg/kg subcutaneous. The class given is in vivo, rat. An excerpt: Tests were videotaped and scored as in Example 13, with pacing defined as number of exits from and returns to the side with the male; and exist and return latencies following mounts, intromissions or ejaculations. FIGS. 8A, 8B, 8C and 8D show the results.

Data set [4] concerns Sprague Dawley rats. The data set is described as follows: Induction of penile erection by intravenous injection. Conditions: for Dose resulting in equivalent penile response by intravenous injection / Efficacious dose (penile erection in 100% of animals): rats; for Efficacious dose (penile erection in 100% of animals): intravenous injection.
Data set [5] concerns Female Long-Evans rats. The data set is described as follows: Female sexual response, bilevel chambers. The following applies: 200 μg/kg subcutaneous. Format: in vivo, rat. On the procedure: Female Long-Evans rats (200-250 g) were house in groups of 2 to 4 depending on size in plastic cages in a colony room maintained on a reversed 12:12 hour light/dark cycle at approximately 21° C. with food and water ad libitum. The rats were ovariectomized bilaterally via lumbar incisions one week prior to preliminary tests of sexual behavior. Intact Long-Evans male rats served as stimulus males, and were sexual vigorous, initiating copulatory activity with females within 15 seconds of being placed into bilevel chambers containing female rats. Following preliminary tests of sexual behavior, females were administered subcutaneous injections of estradiol benzoate, 10 μg in 0.1 mL of sesame oil, forty-eight hours prior to testing, and progesterone, 500 μg in 0.1 mL of sesame oil, four hours prior to testing. Administration of estradiol benzoate and progesterone induced full sexual receptivity in the female rats. Female rats were placed in bilevel chambers five minutes prior to the introduction of a sexual vigorous male. […] Tests were videotaped and score subsequently for appetitive level changing during the five minute period prior to the introduction of the male, lordosis quotients and reflex magnitudes, incidents of solicitation (head-wise orientation and runaway), hops and darts, pacing (level changes per mount), female mounts and defensive responses. […]

Data set [6] can be described thus: Pharmacokinetics in rats following IV administration. Format: in vivo, rat. The following applies: intravenous 100 μg/kg, bioassay.
Another data set deals with ferrets. Kind of data set: Ferret emesis study. The class given is in vivo. Conditions: animals out of six. The text has this: Ferrets are a recognized model for emetic studies. The vehicle for both intravenous and intranasal administration was saline. The positive control was cisplatin, known to induce vomiting in ferrets. The data is described as the number of animals out of a group of six showing signs of vomiting.

The subject of data set [7] is Sprague Dawley rats. Kind of data set: Inhibition of Compound 1-induced penile erection by melanocortin antagonist. Format: in vivo, rat. The following applies: 25 or 50 μg/kg nasal in Nasal Formulation 1, control groups.
Data set [8] can be described thus: Profiles in Monkeys Intranasally Delivered. An excerpt: Table printed on a drawing sheet, FIG. 3
Title: Profiles in Monkeys Intranasally Delivered
First reader's note: Columns 2001, 2002 and 2003 are individual monkeys, and the last two columns are their mean and SEM; the substance name is taken from the y-axis label, printed 'Compopund 1'.

Data set [9] can be described thus: Representative Profile in Monkeys Intravenously Delivered. The text has this: Table printed on a drawing sheet, FIG. 2
Title: Representative Profile in Monkeys Intravenously Delivered

The test system of data set [10] is men with psychogenic erectile dysfunction. The following applies: subcutaneous, 0.025 to 0.157 mg/kg, cited from earlier work.

The values that follow come from US6794489B2, “Compositions and methods for treatment of sexual dysfunction” (Palatin Technologies, Inc., priority 1999, dated 2004).

In the case of `CCCCC(NC(C)=O)C(=O)NC1CC(=O)NCCCCC(C(=O)O)NC(=O)C(Cc2c[nH]c3ccccc23)NC(=O)C(CCCNC(=N)N)NC(=O)C(Cc2ccccc2)NC(=O)C(Cc2c[nH]cn2)NC1=O` [Compound 1, Ac-Nle-cyclo(-Asp-His-D-Phe-Arg-Trp-Lys)-OH], the α-phase in data set [1] is listed as 5 min. In addition, the β-phase in data set [1] turned out to be 25 min. The “% Rats with Penile Erection” value in the data set with Sprague Dawley rats [2] (15 μg/kg) was determined as 50%; in the data set with Sprague Dawley rats [2] (25 μg/kg), 100%; in the data set on Sprague Dawley rats [2] (37 μg/kg) it was 100%; with Sprague Dawley rats [2] (50 μg/kg), 100%; in the data set on Sprague Dawley rats [2] (75 μg/kg), 100%; in the data set on Sprague Dawley rats [2] (500 μg/kg), 100%. In addition, the “% Rats with Penile Erection” value with Sprague Dawley rats [2] (1000 μg/kg) was 100%; in the data set on Sprague Dawley rats [2] (1500 μg/kg), 50%; in the data set on Sprague Dawley rats [4] (intravenous, 0.5 μg/kg), 50%; in the data set on Sprague Dawley rats [4] (intravenous, 1.0 μg/kg), 100%; in the data set with Sprague Dawley rats [4] (intravenous, 2.0 μg/kg) it was 100%; in the data set on Sprague Dawley rats [4] (intravenous, 5.0 μg/kg), 100%. The “% Rats with Penile Erection” value in the data set on Sprague Dawley rats [4] (intravenous, 10.0 μg/kg) was 100%. Further, the “Number of Erections/Rat/30 Minutes” value in the data set with Sprague Dawley rats [2] (15 μg/kg) turned out to be 0.5; in the data set on Sprague Dawley rats [2] (25 μg/kg) it was 2.0; in the data set on Sprague Dawley rats [2] (37 μg/kg), 2.0; in the data set on Sprague Dawley rats [2] (50 μg/kg) it was 2.0; with Sprague Dawley rats [2] (75 μg/kg) it was 2.5; in the data set on Sprague Dawley rats [2] (500 μg/kg), 1.5. In addition, the “Number of Erections/Rat/30 Minutes” value in the data set with Sprague Dawley rats [2] (1000 μg/kg) is reported as 1.5; in the data set with Sprague Dawley rats [2] (1500 μg/kg) it was 0.5; in the data set on Sprague Dawley rats [4] (intravenous, 0.5 μg/kg), 0.5; in the data set on Sprague Dawley rats [4] (intravenous, 1.0 μg/kg), 1.0; in the data set with Sprague Dawley rats [4] (intravenous, 2.0 μg/kg) it was 2.0; with Sprague Dawley rats [4] (intravenous, 5.0 μg/kg), 1.8. In addition, the “Number of Erections/Rat/30 Minutes” value in the data set on Sprague Dawley rats [4] (intravenous, 10.0 μg/kg) is listed as 2.5. Moreover, in the data set on Female Long-Evans rats [3], the Ejaculation return latencies result is reported as “increase”. The “Lordosis or defensive responding” value in the data set with Female Long-Evans rats [3] is recorded as “no effect”. The “Number of exits or returns made by the females” value in the data set on Female Long-Evans rats [3] is “no significant effect”. Besides, the “Number of solicitations, hops and darts, and female mounts compared to controls” value with Female Long-Evans rats [3] (fully primed) is “increased the number of solicitations, hops and darts, and female mounts significantly”. In the data set on Sprague Dawley rats [4] (intravenous, 2 μg/kg, 30 minutes observation period), the “Rats having multiple erections” value was “approximately 50%”. Moreover, the “Dose resulting in equivalent penile response by intravenous injection” value with Sprague Dawley rats [4] is 2 μg/kg of body weight. In addition, the “Efficacious dose (penile erection in 100% of animals)” value in the data set on Sprague Dawley rats [4] was 0.001 mg/kg. Also, the “Rates of appetitive level changing, pacing, lordosis, female mounts or rejection responses” value in the data set on Female Long-Evans rats [5] was “without affecting”. For the same molecule, the Number of solicitations entry in the data set with Female Long-Evans rats [5] (fully and partially primed female rats) was “increased the number of solicitations significantly”. For the same molecule, the “Pharmacokinetic profile in plasma” value in data set [6] is recorded as “bi-phasic”. The “Signs of vomiting (proportions)” value with ferrets (10 μg/kg IV) is on record as 0/6; in the data set on ferrets (30 μg/kg IV), 6/6; in the data set with ferrets (100 μg/kg IN) it was 0/6; in the data set with ferrets (100 μg/kg IV), 6/6; in the data set on ferrets (300 μg/kg IN), 1/6; in the data set on ferrets (500 μg/kg IN), 1/6. The “Rats with observed erections, without pre-administration of SHU9119” value with Sprague Dawley rats [7] stood at 100%.
Take `CCCC[C@H](NC(C)=O)C(=O)N[C@H]1CC(=O)NCCCC[C@@H](C(=O)O)NC(=O)[C@H](Cc2c[nH]c3ccccc23)NC(=O)[C@H](CCCNC(=N)N)NC(=O)[C@@H](Cc2ccccc2)NC(=O)[C@H](Cc2c[nH]cn2)NC1=O` [Compopund 1]: in data set [8], the “%Bioavailability” value is reported as 0.73%, the “AUC” value was 27.16 ng·min/mL, the highest concentration (Cmax) was determined as 0.38 ng/mL and the “Tmax” value turned out to be 50.00 min. In data set [9], the “AUC” value is 3730.0 ng·min/mL, the peak concentration (Cmax) is 1149.0 ng/mL and the time to peak (Tmax) is 0 h.
On to Melanotan-II [reference compound], for which the “% Rats with Penile Erection” value was 25% in the data set with Sprague Dawley rats [2] (100 μg/kg); 100% with Sprague Dawley rats [2] (500 μg/kg); 17% with Sprague Dawley rats [4] (intravenous, 10.0 μg/kg); 75% in the data set with Sprague Dawley rats [4] (intravenous, 100.0 μg/kg). Also, the “Number of Erections/Rat/30 Minutes” value with Sprague Dawley rats [2] (100 μg/kg) worked out at 0.25; in the data set on Sprague Dawley rats [2] (500 μg/kg), 1.0; in the data set with Sprague Dawley rats [4] (intravenous, 10.0 μg/kg), 0.3; in the data set on Sprague Dawley rats [4] (intravenous, 100.0 μg/kg) it was 1.0. Also, the “Period of the penile erection response after nasal administration” value with Sprague Dawley rats [2] (rats, 30 minute observation in ten-minute periods) is 2nd and 3rd ten-minute period. The “Treated men developing clinically apparent erections” value in data set [10] is on record as 8 of 10. For the same molecule, in [10] (placebo 3.0 minutes), the “Mean duration of tip rigidity greater than 80%” value was 38 min. Moreover, the “Optimal efficacious dose intravenously” value in the data set on Sprague Dawley rats [4] (rat model of penile erection) is listed as 100 μg/kg of body weight. The “Dose resulting in equivalent penile response by intravenous injection” value with Sprague Dawley rats [4] is 100 μg/kg of body weight. In addition, the “Efficacious dose (penile erection in 100% of animals)” value with Sprague Dawley rats [4] is at least 0.1 mg/kg.
